Experimental findings from ChEMBL document CHEMBL5150063, “Discovery of Orally Bioavailable N-Benzylpiperidinol Derivatives as Potent and Selective USP7 Inhibitors with In Vivo Antitumor Immunity Activity against Colon Cancer” (J Med Chem, 2022) are described below.

Active and inactive are the calls of the source. No cut-off for these calls is given here.

In test [1] the target is T1, Ubiquitin carboxyl-terminal hydrolase 7 (Homo sapiens, UniProt Q93009). Nature of the test: Inhibition of full-length USP7 (unknown origin) using ubiquitin-rhodamine 110 as substrate preincubated for 30 mins followed by substrate addition and measured after 2 hrs by microplate spectrophotometer analysis.
The target in test [2] is T1, Ubiquitin carboxyl-terminal hydrolase 7. The test can be described thus: Binding affinity to human USP7 (208 to 560 residues) by SPR method.
The test system of test [3] is MC-38. Nature of the test: Antitumor activity against mouse MC38 cells allografted in po dosed C57BL/6J mouse assessed as reduction in tumor growth administered once daily for 21 days. The settings on record: time 21.0 day, DDE = dose-dependent effect. The class given is functional, organism-based.
Test [4] relates to MC-38. The test can be described thus: Antitumor activity against mouse MC38 cells allografted in C57BL/6J mouse assessed as tumor growth inhibition at 100 mg/kg, po administered once daily for 21 days. It counts as functional. The settings on record: MC-38, 504 h, time 21 day, read-out: TGI.
The test system of test [5] is MC-38. Nature of the test: Antitumor activity against mouse MC38 cells allografted in C57BL/6J mouse assessed as tumor growth inhibition at 20 mg/kg, po administered once daily for 21 days. It counts as functional. The settings on record: MC-38, 504 h, time 21 day, read-out: TGI.
For test [6], the system named is MC-38. Nature of the test: Antitumor activity against mouse MC38 cells allografted in C57BL/6J mouse assessed as decrease in spleen index at 20 to 100 mg/kg, po administered daily for 20 days. The class given is functional, organism-based. The settings on record: dose 20-100 mg/kg, time 20.0 day.
Test [7] has as its system MC-38. The test can be described thus: Antitumor activity against mouse MC38 cells allografted in C57BL/6J mouse assessed as upregulation of CD8+ T-cells in T-lymphocytes at 100 mg/kg, po administered daily for 20 days (reference value: 5.2%). The class given is functional. Particulars: time 20 day.
The test system of test [8] is MC-38. The test can be described thus: Antitumor activity against mouse MC38 cells allografted in C57BL/6J mouse assessed as upregulation of NKT-cells in CD45+ cells at 20 mg/kg, po administered daily for 20 days (reference value: […]). It counts as functional. The settings on record: time 20 day.
Test [9] deals with MC-38. The test can be described thus: Antitumor activity against mouse MC38 cells allografted in C57BL/6J mouse assessed as upregulation of NKT-cells in CD45+ cells at 100 mg/kg, po administered daily for 20 days (reference value: […]). It counts as functional. The settings on record: time 20 day.
Test [10] concerns MC-38. The test can be described thus: Antitumor activity against mouse MC38 cells allografted in C57BL/6J mouse assessed as upregulation of NK-cells in CD45+ cells at 20 mg/kg, po administered daily for 20 days (reference value: 3.7%). Particulars: time 20 day. The class given is functional.
The test system of test [11] is MC-38. Nature of the test: Antitumor activity against mouse MC38 cells allografted in C57BL/6J mouse assessed as upregulation of NK-cells in CD45+ cells at 100 mg/kg, po administered daily for 20 days (reference value: 3.7%). Particulars: time 20 day. The class given is functional.
The subject of test [12] is MC-38. Nature of the test: Antitumor activity against mouse MC38 cells allografted in C57BL/6J mouse assessed as downregulation of Treg in CD4+ T-cells at 100 mg/kg, po administered daily for 20 days (reference value: 10.1%). The class given is functional. Particulars: time 20 day.
Test [13] relates to MC-38. The test can be described thus: Antitumor activity against mouse MC38 cells allografted in C57BL/6J mouse assessed as downregulation of MDCS in CD45+ […] at 100 mg/kg, po administered daily for 20 days (reference value: 27.9%). It counts as functional. The settings on record: time 20 day.
Test [14] has as its system MC-38. The test can be described thus: Antitumor activity against mouse MC38 cells allografted in C57BL/6J mouse assessed as increase in M1 cells at 20 mg/kg, po administered daily for 20 days. It counts as functional, organism-based. Particulars: time 20.0 day.
In test [15] the test system is MC-38. Nature of the test: Antitumor activity against mouse MC38 cells allografted in C57BL/6J mouse assessed as decrease in M2 cells at 20 mg/kg, po administered daily for 20 days. It counts as functional, organism-based. The settings on record: time 20.0 day.
The test system of test [16] is MC-38. Nature of the test: Antitumor activity against mouse MC38 cells allografted in C57BL/6J mouse assessed as increase in ratio of M1 to M2 cells at 20 mg/kg, po administered daily for 20 days. The class given is functional, organism-based. Particulars: time 20.0 day.
Test [17] relates to MC-38. The test can be described thus: Antitumor activity against mouse MC38 cells allografted in C57BL/6J mouse assessed as increase in TNFalpha level at 20 mg/kg, po administered daily for 20 days by ELISA (reference value: […]). The class given is functional. The settings on record: time 20 day.
The subject of test [18] is MC-38. Nature of the test: Antitumor activity against mouse MC38 cells allografted in C57BL/6J mouse assessed as increase in TNFalpha level at 100 mg/kg, po administered daily for 20 days by ELISA (reference value: […]). The settings on record: time 20 day. It counts as functional.
Test [19] concerns MC-38. Nature of the test: Antitumor activity against mouse MC38 cells allografted in C57BL/6J mouse assessed as increase in INFalpha level at 100 mg/kg, po administered daily for 20 days by ELISA. The class given is functional, organism-based. The settings on record: time 20.0 day.
The subject of test [20] is MC-38. The test can be described thus: Antitumor activity against mouse MC38 cells allografted in C57BL/6J mouse assessed as increase in IL-2 level at 100 mg/kg, po administered daily for 20 days by ELISA. The class given is functional, organism-based. The settings on record: time 20.0 day.

T1 sequence (Q93009 whole entry, the tested form may be a part): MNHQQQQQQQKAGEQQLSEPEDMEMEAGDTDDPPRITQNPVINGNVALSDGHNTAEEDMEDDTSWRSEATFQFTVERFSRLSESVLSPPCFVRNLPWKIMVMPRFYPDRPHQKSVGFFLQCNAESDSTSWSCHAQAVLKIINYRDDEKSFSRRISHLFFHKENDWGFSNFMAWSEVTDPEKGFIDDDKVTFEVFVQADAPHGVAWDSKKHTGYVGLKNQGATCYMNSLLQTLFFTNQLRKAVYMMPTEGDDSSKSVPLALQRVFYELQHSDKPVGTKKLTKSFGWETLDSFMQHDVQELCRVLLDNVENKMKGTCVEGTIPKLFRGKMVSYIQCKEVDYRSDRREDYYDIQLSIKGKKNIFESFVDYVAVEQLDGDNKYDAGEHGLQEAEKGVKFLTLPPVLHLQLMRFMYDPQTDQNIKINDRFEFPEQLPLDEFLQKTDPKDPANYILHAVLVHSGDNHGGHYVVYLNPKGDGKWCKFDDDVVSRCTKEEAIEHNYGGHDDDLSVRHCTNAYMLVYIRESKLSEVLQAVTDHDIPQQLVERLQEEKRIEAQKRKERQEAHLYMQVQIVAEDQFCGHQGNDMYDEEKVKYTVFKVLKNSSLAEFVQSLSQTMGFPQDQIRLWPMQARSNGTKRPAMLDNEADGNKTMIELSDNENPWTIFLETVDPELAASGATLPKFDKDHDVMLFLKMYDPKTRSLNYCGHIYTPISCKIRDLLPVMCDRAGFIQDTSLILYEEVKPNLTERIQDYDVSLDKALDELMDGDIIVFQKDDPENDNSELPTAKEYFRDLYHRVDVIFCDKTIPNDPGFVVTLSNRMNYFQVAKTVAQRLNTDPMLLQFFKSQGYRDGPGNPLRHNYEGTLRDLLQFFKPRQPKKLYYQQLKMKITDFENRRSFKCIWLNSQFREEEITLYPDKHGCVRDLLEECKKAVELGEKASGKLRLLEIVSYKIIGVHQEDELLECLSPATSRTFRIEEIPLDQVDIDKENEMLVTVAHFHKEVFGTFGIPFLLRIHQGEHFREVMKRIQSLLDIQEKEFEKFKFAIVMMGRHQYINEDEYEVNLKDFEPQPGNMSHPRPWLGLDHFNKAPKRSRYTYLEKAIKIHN

The compound `Cn1nc2c(=O)n(CC3(O)CCN(Cc4ccc(-c5ccco5)cc4Cl)CC3)cnc2c1-c1ccc(F)cc1` returned an IC50 in test [1] of 64.5 nM. In test [2], this compound gave a Kd of 541 nM. Further, the Activity result in test [3] was “Dde”; in [7], 9.9%; in [8] it was 9.8%; in [9] it was 18%; in test [10], 7.5%; in [11], 12.2%. The Activity was 5.8% in [12], 11.4% in test [13], 2.66 pg/mL in [17] and 2.79 pg/mL in test [18]. Further, the inhibition in vivo at 100 mg/kg in test [4] worked out at 74.2%. In addition, the inhibition in vivo at 20 mg/kg in [5] was 36.6%. Besides, the result in test [6], in test [14], in test [15], in test [16], in [19] and in test [20] was Active.
